Common to all, as to format: in vivo
For experiment [1], the system named is castrated male Wistar rats. The experiment can be described thus: Wet weight of glandulae preputiales, seminal vesicle and prostate of castrated rats. As to conditions: once daily for 30 days, sacrificed day 31. As for the experimental part:
(§1) To test the ability of the EMF-treated AS2.502 cells to improve male sexual function, hormone levels, and sexual organ development, 50 healthy adult male Wistar rats (about 100-120 g body weight, 6-8 weeks old) were selected. Ten rats were randomly selected to be the normal control group, CK1 (uncastrated rats). Under anesthesia with pentobarbital (5%, at 45 mg/kg body weight), both testes (including the epididymis) of each of the remaining 40 rats were removed under sterile conditions. Immediately after castration, Penicillin G was injected at 20,000 U/kg body weight once daily for five consecutive days. The castrated rats were then randomly divided into four equal groups, designated as AY (for treatment with the activated yeast composition), NY (for treatment with the control yeast composition), CK2 (for treatment with testosterone propionate), and CK3 (for treatment with saline). Each rat was kept separately. The activated yeast composition was administered to the AY rats at 1.2 ml/kg body weight once daily for 30 days. The control yeast composition was administered to the NY rats and saline was administered to the CK3 rats at the same dosage. […]
Each male rat was sacrificed on the thirty-first day. […] The wet weight of the prostate and seminal vesicle was recorded in Table 2. […] The wet weight of the glandulae preputiales was also recorded in Table 2.

Experiment [2] concerns castrated Wistar rats. The experiment can be described thus: Erectile function by electrical stimulation (erection lag) in castrated rats. Particulars: once daily for 30 days, day 31, stimulator 55 Hz and 4.5 mA. As for the experimental part:
as §1, with “150-180” for “100-120”, “8-10” for “6-8”
On the thirty-first day of the experiment, an electrical stimulator was used to measure the erectile function of the rats. […] The time needed for the penis to achieve erection (“the erection lag”) was recorded in Table 3.

For experiment [3], the system named is castrated male Wistar rats. Nature of the experiment: Sexual activity of castrated male rats caged with female rats (mounting, sniffing and licking frequency). Particulars: once daily for 30 days (yeast 1.2 ml/kg intragastric; testosterone propionate 2 mg/kg i.m.), day 29, two female rats in cage. As for the experimental part: as §1, with “days.” for “days. The control yeast composition was administered to the NY rats and saline was administered to the CK3 rats at the same dosage.”
On the twenty-ninth day of the experiment, two female rats (100-120 g, 6-8 weeks old) were put into the same cage as each male rat and kept there for 30 minutes. The frequency of the male rat's sniffing and licking of the female rats, and the frequency of the male rat's mounting of the female rats were recorded in Table 2.

Experiment [4] has as its system castrated Wistar rats. Nature of the experiment: Blood testosterone concentration by radio-immunoassay (RIA) in castrated rats. Particulars: once daily for 30 days, blood after the erection test on day 31, RIA. The protocol:
as §1, with “150-180” for “100-120”, “8-10” for “6-8”
Each rat was sacrificed after the erection test. Blood samples were collected from each rat, and the blood concentration of testosterone was determined by the standard radio-immunoassay (RIA) method.

The structures appear in SMILES notation.

`CCC(=O)O[C@H]1CC[C@H]2[C@@H]3CCC4=CC(=O)CC[C@]4(C)[C@H]3CC[C@]12C` [testosterone propionate]: in experiment [1], the “Glandulae Preputiales (wet weight)” value is recorded as 89.5 ± 14.6 mg; the “Seminal Vesicle and Prostate (wet weight)” value is given as 198.7 ± 42.6 mg. Further, the “Erection Lag” value in experiment [2] came to 19.3 ± 14.6 s. Moreover, in experiment [3], the “Mounting Frequency Within a 30 min Period” value was determined as 12.3 ± 4.6 and the “Sniffing & Licking Frequency Within a 30 min Period” value came out at 22.7 ± 4.6. The “Testosterone Levels” value in experiment [4] is 124.17 ± 67.65 ng/dL.

Values taken from patent US20050106173A1, “METHODS AND COMPOSITIONS FOR TREATING MALE SEXUAL DYSFUNCTION” (priority 2003, published 2005).
